Reference: PubChem BioAssay AID1963977 (Molecular Pharmacology Branch, DTP, NCI, 2024)
pIC50: −log10 of the molar value. Blank lines part the entries; values can stand above or below the molecule they belong to.

System: 624824-186-R-J3-PDC multicell spheroids, viability
Assay: Anticancer human tumor 624824-186-R-J3-PDC patient-derived colon adenocarcinoma cell line growth inhibition [PI3K]
Conditions: for pIC50: curve of first compound; for viability, T/C: stronger effect = lower value
Summary of the method: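 Three cell types, namely tumor cells, endothelial cells and mesenchymal stem cells, formed each spheroid. Combinations with four PI3K inhibitors were screened at clinically achievable concentrations decreasing by half-log, and spheroid viability was recorded.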

[1] = second compound 0.0316 µM, first compound 0.0316 µM
[2] = second compound 0.0316 µM, first compound 0.1 µM
[3] = second compound 0.0316 µM, first compound 0.316 µM
[4] = second compound 0.0316 µM, first compound 1 µM
[5] = second compound 0.0316 µM, first compound 3.16 µM
[6] = second compound 0.0316 µM, first compound 10 µM
[7] = second compound 0.1 µM, first compound 0.0316 µM
[8] = second compound 0.1 µM, first compound 0.1 µM
[9] = second compound 0.1 µM, first compound 0.316 µM
[10] = second compound 0.1 µM, first compound 1 µM
[11] = second compound 0.1 µM, first compound 3.16 µM
[12] = second compound 0.1 µM, first compound 10 µM
[13] = second compound 0.316 µM, first compound 0.0316 µM
[14] = second compound 0.316 µM, first compound 0.1 µM
[15] = second compound 0.316 µM, first compound 0.316 µM
[16] = second compound 0.316 µM, first compound 1 µM
[17] = second compound 0.316 µM, first compound 3.16 µM
[18] = second compound 0.316 µM, first compound 10 µM
[19] = second compound 1 µM, first compound 0.0316 µM
[20] = second compound 1 µM, first compound 0.1 µM
[21] = second compound 1 µM, first compound 0.316 µM
[22] = second compound 1 µM, first compound 1 µM
[23] = second compound 1 µM, first compound 3.16 µM
[24] = second compound 1 µM, first compound 10 µM
[25] = second compound 3.16 µM, first compound 0.0316 µM
[26] = second compound 3.16 µM, first compound 0.1 µM
[27] = second compound 3.16 µM, first compound 0.316 µM
[28] = second compound 3.16 µM, first compound 1 µM
[29] = second compound 3.16 µM, first compound 3.16 µM
[30] = second compound 3.16 µM, first compound 10 µM
[31] = second compound 10 µM, first compound 0.0316 µM
[32] = second compound 10 µM, first compound 0.1 µM
[33] = second compound 10 µM, first compound 0.316 µM
[34] = second compound 10 µM, first compound 1 µM
[35] = second compound 10 µM, first compound 3.16 µM
[36] = second compound 10 µM, first compound 10 µM
[37] = second compound 0.0316 µM, first compound 0.00316 µM
[38] = second compound 0.0316 µM, first compound 0.01 µM
[39] = second compound 0.1 µM, first compound 0.00316 µM
[40] = second compound 0.1 µM, first compound 0.01 µM
[41] = second compound 0.316 µM, first compound 0.00316 µM
[42] = second compound 0.316 µM, first compound 0.01 µM
[43] = second compound 1 µM, first compound 0.00316 µM
[44] = second compound 1 µM, first compound 0.01 µM
[45] = second compound 3.16 µM, first compound 0.00316 µM
[46] = second compound 3.16 µM, first compound 0.01 µM
[47] = second compound 10 µM, first compound 0.00316 µM
[48] = second compound 10 µM, first compound 0.01 µM
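Also: spheroids exposed to agents for seven days before luminescence read.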
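For viability, T/C in this document: luminescent signal used as a stand-in for spheroid viability; percent viability relative to DMSO vehicle control wells taken as 100%.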

pIC50 (second compound 0.0316 µM): < 5.00
pIC50 (second compound 0.1 µM): < 5.00
pIC50 (second compound 0.316 µM): < 5.00
pIC50 (second compound 1 µM): < 5.00
pIC50 (second compound 3.16 µM): 5.19
pIC50 (second compound 10 µM): 5.09
Compound: CC(C)NCC(C(=O)N1CCN(c2ncnc3c2C(C)CC3O)CC1)c1ccc(Cl)cc1 (stereo not given) + CC(Nc1ncnc2nc[nH]c12)c1cc2cccc(Cl)c2c(=O)n1-c1ccccc1
viability, T/C [1]: 124%
viability, T/C [2]: 99%
viability, T/C [3]: 94.2%
viability, T/C [4]: 80.5%
viability, T/C [5]: 72.5%
viability, T/C [6]: 52.4%
viability, T/C [7]: 108%
viability, T/C [8]: 89.1%
viability, T/C [9]: 95.5%
viability, T/C [10]: 81.2%
viability, T/C [11]: 59.9%
viability, T/C [12]: 56.2%
viability, T/C [13]: 103%
viability, T/C [14]: 103%
viability, T/C [15]: 106%
viability, T/C [16]: 79.2%
viability, T/C [17]: 59.8%
viability, T/C [18]: 54.2%
viability, T/C [19]: 104%
viability, T/C [20]: 110%
viability, T/C [21]: 115%
viability, T/C [22]: 74.7%
viability, T/C [23]: 62.8%
viability, T/C [24]: 45.8%
viability, T/C [25]: 93%
viability, T/C [26]: 89.7%
viability, T/C [27]: 89.5%
viability, T/C [28]: 71.6%
viability, T/C [29]: 57.4%
viability, T/C [30]: 45.7%
viability, T/C [31]: 98.2%
viability, T/C [32]: 89.5%
viability, T/C [33]: 80%
viability, T/C [34]: 72%
viability, T/C [35]: 56%
viability, T/C [36]: 48.7%

pIC50 (second compound 0.0316 µM): < 6.00
pIC50 (second compound 0.1 µM): < 6.00
pIC50 (second compound 0.316 µM): < 6.00
pIC50 (second compound 1 µM): < 6.00
pIC50 (second compound 3.16 µM): < 6.00
pIC50 (second compound 10 µM): < 6.00
Compound: CCN1CCN(Cc2ccc(Nc3ncc(F)c(-c4cc(F)c5nc(C)n(C(C)C)c5c4)n3)nc2)CC1 + CC(Nc1ncnc2nc[nH]c12)c1cc2cccc(Cl)c2c(=O)n1-c1ccccc1
viability, T/C [37]: 101%
viability, T/C [38]: 94%
viability, T/C [1]: 101%
viability, T/C [2]: 110%
viability, T/C [3]: 99%
viability, T/C [4]: 109%
viability, T/C [39]: 103%
viability, T/C [40]: 108%
viability, T/C [7]: 97.2%
viability, T/C [8]: 106%
viability, T/C [9]: 111%
viability, T/C [10]: 97.6%
viability, T/C [41]: 105%
viability, T/C [42]: 110%
viability, T/C [13]: 96.4%
viability, T/C [14]: 111%
viability, T/C [15]: 99.8%
viability, T/C [16]: 99.7%
viability, T/C [43]: 93.1%
viability, T/C [44]: 103%
viability, T/C [19]: 104%
viability, T/C [20]: 94.3%
viability, T/C [21]: 92.2%
viability, T/C [22]: 101%
viability, T/C [45]: 106%
viability, T/C [46]: 100%
viability, T/C [25]: 102%
viability, T/C [26]: 90.8%
viability, T/C [27]: 88.1%
viability, T/C [28]: 81.8%
viability, T/C [47]: 96.6%
viability, T/C [48]: 96.7%
viability, T/C [31]: 87%
viability, T/C [32]: 78.1%
viability, T/C [33]: 65.3%
viability, T/C [34]: 67%

pIC50 (second compound 0.0316 µM): < 5.00
pIC50 (second compound 0.1 µM): 5.09
pIC50 (second compound 0.316 µM): 5.25
pIC50 (second compound 1 µM): 5.29
pIC50 (second compound 3.16 µM): 5.38
pIC50 (second compound 10 µM): 5.65
Compound: Cn1ncc(Cl)c1-c1cc(C(=O)NC(CN)Cc2cccc(F)c2)sc1Cl (stereo not given) + CC(Nc1ncnc2nc[nH]c12)c1cc2cccc(Cl)c2c(=O)n1-c1ccccc1
viability, T/C [1]: 95.7%
viability, T/C [2]: 109%
viability, T/C [3]: 103%
viability, T/C [4]: 69.4%
viability, T/C [5]: 62.4%
viability, T/C [6]: 47.8%
viability, T/C [7]: 115%
viability, T/C [8]: 101%
viability, T/C [9]: 96.1%
viability, T/C [10]: 83.5%
viability, T/C [11]: 64.5%
viability, T/C [12]: 46.5%
viability, T/C [13]: 103%
viability, T/C [14]: 101%
viability, T/C [15]: 90.7%
viability, T/C [16]: 75.4%
viability, T/C [17]: 59.9%
viability, T/C [18]: 41%
viability, T/C [19]: 107%
viability, T/C [20]: 102%
viability, T/C [21]: 91.9%
viability, T/C [22]: 78.6%
viability, T/C [23]: 61.5%
viability, T/C [24]: 35.2%
viability, T/C [25]: 96.8%
viability, T/C [26]: 94%
viability, T/C [27]: 86.3%
viability, T/C [28]: 64.4%
viability, T/C [29]: 57.6%
viability, T/C [30]: 37.5%
viability, T/C [31]: 94.3%
viability, T/C [32]: 89.6%
viability, T/C [33]: 73.5%
viability, T/C [34]: 60.5%
viability, T/C [35]: 45.7%
viability, T/C [36]: 38.5%

pIC50 (second compound 0.0316 µM): < 5.00
pIC50 (second compound 0.1 µM): < 5.00
pIC50 (second compound 0.316 µM): < 5.00
pIC50 (second compound 1 µM): 5.03
pIC50 (second compound 3.16 µM): 5.55
pIC50 (second compound 10 µM): 6.20
Compound: Cn1nccc1Nc1nccc(-c2ccn(C(CO)c3ccc(Cl)c(F)c3)c(=O)c2)n1 (stereo not given) + CC(Nc1ncnc2nc[nH]c12)c1cc2cccc(Cl)c2c(=O)n1-c1ccccc1
viability, T/C [1]: 103%
viability, T/C [2]: 93.9%
viability, T/C [3]: 95.1%
viability, T/C [4]: 76.9%
viability, T/C [5]: 61.2%
viability, T/C [6]: 57.4%
viability, T/C [7]: 103%
viability, T/C [8]: 85.4%
viability, T/C [9]: 94.5%
viability, T/C [10]: 74%
viability, T/C [11]: 61.2%
viability, T/C [12]: 57.3%
viability, T/C [13]: 89.7%
viability, T/C [14]: 88%
viability, T/C [15]: 87%
viability, T/C [16]: 72.7%
viability, T/C [17]: 62.6%
viability, T/C [18]: 51.8%
viability, T/C [19]: 98.5%
viability, T/C [20]: 88.2%
viability, T/C [21]: 91.2%
viability, T/C [22]: 77.7%
viability, T/C [23]: 61.8%
viability, T/C [24]: 49.4%
viability, T/C [25]: 103%
viability, T/C [26]: 88.1%
viability, T/C [27]: 74.8%
viability, T/C [28]: 63%
viability, T/C [29]: 47.4%
viability, T/C [30]: 38.5%
viability, T/C [31]: 89.6%
viability, T/C [32]: 81.7%
viability, T/C [33]: 59.4%
viability, T/C [34]: 43.5%
viability, T/C [35]: 35.5%
viability, T/C [36]: 30.2%

pIC50 (second compound 0.0316 µM): < 7.00
pIC50 (second compound 0.1 µM): < 7.00
pIC50 (second compound 0.316 µM): < 7.00
pIC50 (second compound 1 µM): < 7.00
pIC50 (second compound 3.16 µM): < 7.00
pIC50 (second compound 10 µM): < 7.00
Compound: Cn1ncnc1[C@H]1c2n[nH]c(=O)c3cc(F)cc(c23)N[C@@H]1c1ccc(F)cc1 + CC(Nc1ncnc2nc[nH]c12)c1cc2cccc(Cl)c2c(=O)n1-c1ccccc1
viability, T/C (second compound 0.0316 µM, first compound 0.000316 µM): 104%
viability, T/C (second compound 0.0316 µM, first compound 0.001 µM): 101%
viability, T/C [37]: 135%
viability, T/C [38]: 104%
viability, T/C [1]: 116%
viability, T/C [2]: 117%
viability, T/C (second compound 0.1 µM, first compound 0.000316 µM): 104%
viability, T/C (second compound 0.1 µM, first compound 0.001 µM): 96.3%
viability, T/C [39]: 107%
viability, T/C [40]: 102%
viability, T/C [7]: 95.9%
viability, T/C [8]: 120%
viability, T/C (second compound 0.316 µM, first compound 0.000316 µM): 99.2%
viability, T/C (second compound 0.316 µM, first compound 0.001 µM): 108%
viability, T/C [41]: 110%
viability, T/C [42]: 106%
viability, T/C [13]: 114%
viability, T/C [14]: 118%
viability, T/C (second compound 1 µM, first compound 0.000316 µM): 98.5%
viability, T/C (second compound 1 µM, first compound 0.001 µM): 105%
viability, T/C [43]: 105%
viability, T/C [44]: 101%
viability, T/C [19]: 111%
viability, T/C [20]: 111%
viability, T/C (second compound 3.16 µM, first compound 0.000316 µM): 109%
viability, T/C (second compound 3.16 µM, first compound 0.001 µM): 107%
viability, T/C [45]: 109%
viability, T/C [46]: 110%
viability, T/C [25]: 104%
viability, T/C [26]: 112%
viability, T/C (second compound 10 µM, first compound 0.000316 µM): 97.8%
viability, T/C (second compound 10 µM, first compound 0.001 µM): 93%
viability, T/C [47]: 101%
viability, T/C [48]: 98.2%
viability, T/C [31]: 90.1%
viability, T/C [32]: 95.1%
